Each structure is given as a SMILES string. Where two headings read alike, the source gives them in different places.

Assay [1] deals with T1, rat liver ornithine decarboxylase (Rattus norvegicus, UniProt P09057).
T1 construct: rat liver ornithine decarboxylase in vitro; from tissue; host or cells: rat liver
T1 sequence (P09057 1-461): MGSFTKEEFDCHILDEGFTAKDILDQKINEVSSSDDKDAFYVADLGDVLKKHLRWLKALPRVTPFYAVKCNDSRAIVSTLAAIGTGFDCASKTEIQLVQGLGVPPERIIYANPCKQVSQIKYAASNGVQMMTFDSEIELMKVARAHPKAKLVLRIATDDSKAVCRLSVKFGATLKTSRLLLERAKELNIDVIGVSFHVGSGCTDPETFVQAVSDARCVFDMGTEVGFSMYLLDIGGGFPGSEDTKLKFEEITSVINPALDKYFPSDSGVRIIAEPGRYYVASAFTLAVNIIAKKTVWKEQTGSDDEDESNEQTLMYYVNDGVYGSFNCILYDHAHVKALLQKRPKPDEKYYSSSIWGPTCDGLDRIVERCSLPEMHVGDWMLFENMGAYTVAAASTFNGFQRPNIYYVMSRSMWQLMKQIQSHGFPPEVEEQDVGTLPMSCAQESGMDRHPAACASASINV
The assay can be described thus: time-dependent inhibition of rat liver ODC (in vitro). Type of assay: biochemical.

Assay [2] concerns the target T2, ornithine decarboxylase (Rattus norvegicus, UniProt P09057).
T2 construct: from tissue; host or cells: rat ventral prostate and thymus
T2 sequence (P09057 1-461): T1 sequence (P09057 1-461)
The assay can be described thus: ODC activity remaining in rat tissues after a single dose (in vivo). Also on record: species or system rats. The note with it: single oral dose 200 mg/kg. On the procedure:
The ODC inhibitory activity of a compound can be determined in vitro by the method described by B. Metcalf et al., J. Am. Chem. Soc., 100, 2551 (1978) and in vivo by the method of C. Danzin, Life Sciences, 24, 519 (1979).
2-Fluoromethyl-2,5-diaminopentanoic acid and 2-fluoromethyl-2,6-diaminohexanoic acid were tested for inhibition of ornithine decarboxylase in rats according to the procedure of C. Danzin et al., Life Sciences, 24, 519 (1979).

Where [3] appears, read: concentration of compound which gives half-maximal rate of inhibition, time-dependent inhibition.
[4] abbreviates: half-life of inhibition at 10 μM inhibitor.
The mark [5] stands for this setting: half-life of inhibition at infinite concentration of inhibitor.

Regarding `NCCCCC(N)(CCl)C(=O)O` (centres unmarked) [MCML, 2-chloromethyl-2,6-diaminohexanoic acid], in assay [1], the T1/2 entry is “no apparent saturation” and the “t1/2 at 10 μM” value is listed as 62 min.
Turning to `NCCCC(N)(CCl)C(=O)O` (centres unmarked) [MCMO, 2-chloromethyl-2,5-diaminopentanoic acid], in assay [1] (setting [3]), the “K I” value is recorded as “no apparent saturation”. The “t1/2 at 10 μM” value in assay [1] (setting [4]) is on record as 22 min. For the same compound, in assay [1] (setting [5]), the T1/2 result is reported as “no apparent saturation”.
On to `NCCCCC(N)(CF)C(=O)O` (centres unmarked) [MFML, 2-fluoromethyl-2,6-diaminohexanoic acid], for which the Ki in assay [1] (setting [3]) amounted to 430 µM. The “t1/2 at 10 μM” value in assay [1] (setting [4]) worked out at 88 min. The T1/2 in assay [1] (setting [5]) was found to be 2.0 min. Besides, the “ODC Activity remaining in ventral prostate” value came out at 66 ± 6 % Control in assay [2] (3 h), 44 ± 10 % Control in assay [2] (6 h) and 74 ± 7 % Control in assay [2] (12 h).

These data come from US4866206A, “2-Halomethyl derivatives of 2-amino acids” (Merrell Dow France et Cie, priority 1988, dated 1989).
